# Source: US5039528A, “EAA antagonists as anti-emetic drugs” (priority 1989, dated 1991)
# Read-outs that look alike come from different tables or passages of the source.
# Legend:
# NMDA receptors [1] = test: Chick retina assay: protection against excitotoxic action of NMDA; assay type: cell-based
# Description: (§1) Antagonist potencies were established in a chick retina assay which has
# (§2) (NMDA, KA and Quis) for excitotoxic properties and EAA antagonists for
# (§3) potency in protecting the retina against the excitotoxic action of such
# (§4) agonists. The concentration of antagonist required to totally prevent the
# (§5) toxic action of an agonist was used to compare antagonists for potency.
# (§6) For purposes of illustration, the data were normalized by assigning a
# (§7) EAA antagonist properties have been described in each category. Antagonis
# (§8) potencies were established in a chick retina assay which has been used by
# (§9) Quis) for excitotoxic properties and EAA antagonists for potency in
# (§10) protecting the retina against the excitotoxic action of such agonists.
# (§11) concentration of antagonist required to totally prevent the toxic action
# (§12) of an agonist was used to compare antagonists for potency. For purposes o
# (§13) to kynurenic acid vs KA (see table 1) and all other values were adjusted
# [2] = cited from earlier work; for penetration of blood brain barriers: statement in text; for BBB penetrability: Table 1
# humans = details: cited from earlier work; for psychotic effects: humans; for serious side effects: interaction with NMDA receptors throughout the brain
# KA receptors [3] = test: Chick retina assay: protection against excitotoxic action of KA; assay type: cell-based
# Description: as §1, §2, §3, §4, §5, §6, §7, §8, §9, §10, §11, §12, §13
# Quis receptors [4] = test: Chick retina assay: protection against excitotoxic action of Quis; assay type: cell-based
# Description: as §1, §2, §3, §4, §5, §6, §7, §8, §9, §10, §11, §12, §13
# [5] = system: EAA receptors (NMDA, KA, Quis); details: cited from earlier work
# NMDA receptors [6] = details: Table 1, *: not screened in chick retina assay; estimated from other reported electrophysiological data; cited from earlier work
# KA receptors [7] = details: Table 1, *: not screened in chick retina assay; estimated from other reported electrophysiological data; cited from earlier work
# Quis receptors [8] = details: Table 1, *: not screened in chick retina assay; estimated from other reported electrophysiological data; cited from earlier work
# dogs [9] = test: Emesis induction by glutamate in dogs; blockage by D-AP5 or Kyn; assay type: in vivo, dog
# patients = details: high blood concentrations, humans; cited from earlier work
# [10] = system: area postrema-CVO neurons; details: cited from earlier work; for emesis at a toxic dose: dogs and monkeys; for neurotoxic effects: subcutaneous, immature animals of various species including monkeys, CVO brain regions
# dogs [11] = test: Emesis induction by KA in dogs; blockage by Kyn; assay type: in vivo, dog
# Procedure: Kainic acid (KA), an EAA agonist which triggers the KA class of non-NMDA receptors, was administered to dogs at dosages in the vicinity of 0.5 mg/kg SC.
# cerebral ischemia = details: animal experiments, cerebral ischemia (stroke); cited from earlier work
# neurons = details: cited from earlier work
# [12] = system: emesis associated with cancer chemotherapy; details: cited from earlier work; for side effects: high doses; for anti-emetic effect in cancer chemotherapy: in vivo
# [13] = system: motion sickness or vertigo; details: in vivo; cited from earlier work
# ferrets = test: Emesis induction by cisplatin (8 mg/kg IV) in ferrets; blockage by Kyn; assay type: in vivo, ferret; details: cisplatin 8 mg/kg IV, ferrets
# Procedure: Four ferrets (a control group) received 8 mg/kg IV cisplatin, a chemotherapeutic drug which has a powerful emetic effect.
# Nine ferrets were treated with cisplatin (8 mg/kg IV), and with Kyn, either by bolus (one-shot) injection using 150 mg/kg, or by continuous IV infusion using 50 mg/kg/hour.
# 5-HT M receptors = details: cited from earlier work
# [14] = Table 2, normalized to kynurenic acid vs KA = 1
# [15] = Table 1, normalized to kynurenic acid vs KA = 1
# [16] = Kyn 50 mg/kg/hour continuous IV infusion
compound,measurement,setting,value
CCNC1(c2cccs2)CCCCC1=O (racemic) [tilletamine],EAA antagonist potency vs NMDA,NMDA receptors [1]; [14],200
same,penetration of blood brain barriers,[2],permeate easily through BBB's
same,psychotic effects,humans,psychotic effects
"O=C(O)c1cc(O)c2ccc(Cl)cc2n1 [7-Cl-kynurenate, 7-chloro-kynurenic acid]",EAA antagonist potency vs NMDA,NMDA receptors [1]; [15],10
same,EAA antagonist potency vs KA,KA receptors [3]; [15],4
same,EAA antagonist potency vs Quis,Quis receptors [4]; [15],3
same,EAA receptor subtype order of blockade,[5],NMDA>KA>Quis
same,BBB penetrability,[2],very low
same,penetration of blood brain barriers,[2],do not penetrate blood-brain barriers
C/C(=C\C(N)C(=O)O)CP(=O)(O)O (centres unmarked) [CGP 37849],EAA antagonist potency vs NMDA,NMDA receptors [6],200
same,EAA antagonist potency vs KA,KA receptors [7],0
same,EAA antagonist potency vs Quis,Quis receptors [8],0
same,BBB penetrability,[2],moderate
O=C(O)[C@@H]1C[C@H](CP(=O)(O)O)CCN1 [CGS 19755],EAA antagonist potency vs NMDA,NMDA receptors [6],200
same,EAA antagonist potency vs KA,KA receptors [7],0
same,EAA antagonist potency vs Quis,Quis receptors [8],0
O=C(O)C1CN(C/C=C/P(=O)(O)O)CCN1 (centres unmarked) [CPP-ene],EAA antagonist potency vs NMDA,NMDA receptors [6],200
same,EAA antagonist potency vs KA,KA receptors [7],0
same,EAA antagonist potency vs Quis,Quis receptors [8],0
same,BBB penetrability,[2],moderate
same,penetration of blood brain barriers,[2],do not readily penetrate blood brain barriers
O=C(O)C1CN(CCCP(=O)(O)O)CCN1 (centres unmarked) [CPP],EAA antagonist potency vs NMDA,NMDA receptors [6],200
same,EAA antagonist potency vs KA,KA receptors [7],0
same,EAA antagonist potency vs Quis,Quis receptors [8],0
"N[C@H](CCCP(=O)(O)O)C(=O)O [D-AP5, D-2-amino-5-phosphonopentanoate]",EAA antagonist potency vs NMDA,NMDA receptors [1]; [15],40
"N[C@H](CCCCCP(=O)(O)O)C(=O)O [D-AP7, D-2-amino-7-phosphonoheptanoate]",EAA antagonist potency vs NMDA,NMDA receptors [1]; [15],13
same,BBB penetrability,[2],very low
same,penetration of blood brain barriers,[2],do not readily penetrate blood brain barriers
"O=c1[nH]c2cc([N+](=O)[O-])c([N+](=O)[O-])cc2[nH]c1=O [DNQX, 6,7-dinitro-quinoxaline-2,3-dion]",EAA antagonist potency vs NMDA,NMDA receptors [1]; [15],10
same,EAA antagonist potency vs KA,KA receptors [3]; [15],20
same,EAA antagonist potency vs Quis,Quis receptors [4]; [15],40
same,block of non-NMDA vs NMDA receptors,[5],block non-NMDA receptors substantially more powerfully than NMDA receptors
same,potency compared with kynurenic or 7-chloro-kynurenic acid,[5],significantly more powerful
same,BBB penetrability,[2],very low
same,penetration of blood brain barriers,[2],do not penetrate blood-brain barriers
"N[C@@H](CCC(=O)O)C(=O)O [Glutamate, glutamate]",emetic response to glutamate,dogs [9]; 150 mg/kg IV,An emetic response was observed in all animals
same,penetration of blood brain barriers,[2],does not penetrate the BBB
same,emetic properties,patients,induce vomiting
same,emesis at a toxic dose,[10],first causes the animal to vomit before continued excitatory stimulation destroys the area postrema-CVO neurons
same,neurotoxic effects,[10],powerful neurotoxic effects
"C=C(C)[C@H]1CN[C@H](C(=O)O)[C@H]1CC(=O)O [KA, kainic acid]",emetic response to KA,"dogs [11]; in the vicinity of 0.5 mg/kg SC, without Kyn",All of the animals suffered an emetic response
C[C@]12N[C@H](Cc3ccccc31)c1ccccc12 [MK-801],EAA antagonist potency vs NMDA,NMDA receptors [1]; [14],5000
same,neuroprotective effects,cerebral ischemia,powerful neuroprotective effects
same,psychotic effects,humans,psychotic effects
same,serious side effects,humans,psychotic disturbances and pathomorphological changes in cerebrocortical neurons
"c1ccc(C2(N3CCCCC3)CCCCC2)cc1 [PCP, phencyclidine]",EAA antagonist potency vs NMDA,NMDA receptors [1]; [14],2000
same,neuroprotective effects,cerebral ischemia,powerful neuroprotective effects
same,penetration of blood brain barriers,[2],readily penetrate BBB
same,penetration of blood brain barriers,[2]; listed as phencyclidine,permeate easily through BBB's
same,psychotic effects,humans,psychotic effects
same,serious side effects,humans,psychotic disturbances and pathomorphological changes in cerebrocortical neurons
"OC(CN1CCC(Cc2ccc(F)cc2)CC1)c1ccc(Cl)cc1 (centres unmarked) [SL 82,0715]",EAA antagonist potency vs NMDA,NMDA receptors [1]; [15],50
N[C@@H](CC(=O)O)C(=O)O [aspartate],emetic properties,patients,induce vomiting
same,emesis at a toxic dose,[10],first causes the animal to vomit before continued excitatory stimulation destroys the area postrema-CVO neurons
same,neurotoxic effects,[10],powerful neurotoxic effects
CN1[C@@H]2CC[C@H]1C[C@@H](OC(c1ccccc1)c1ccccc1)C2 [benztropine],reduction of the neurotoxicity of NMDA antagonists that penetrate the BBB,neurons; in vivo,effective in reducing the neurotoxicity
OC(CCN1CCCCC1)(c1ccccc1)C1CC2C=CC1C2 (centres unmarked) [biperiden],reduction of the neurotoxicity of NMDA antagonists that penetrate the BBB,"neurons; Ser. No. 424,548",effective in reducing the neurotoxicity
CN1CCN(CCCN2c3ccccc3Sc3ccc(Cl)cc32)CC1 [compazine],side effects,[12],"severe side effects such as abnormal motor movements, muscle rigidity, and tremors"
same,anti-emetic effect in cancer chemotherapy,[12],only weakly active as anti-emetics
COc1ccc2c(c1)[C@]13CCCC[C@@H]1[C@H](C2)N(C)CC3 [dextromethorphan],EAA antagonist potency vs NMDA,NMDA receptors [1]; [14],20
CN1CC[C@@]23CCCC[C@@H]2[C@@H]1Cc1ccc(O)cc13 [dextrorphan],EAA antagonist potency vs NMDA,NMDA receptors [1]; [14],40
CN(C)CCOC(c1ccccc1)c1ccccc1 [dimenhydrinate],effect against motion sickness or vertigo,[13],"relatively ineffective unless taken before a boat or airplane ride or other motion begins, or before the onset of vertigo"
same,effect on nausea and vomiting caused by other factors,[13],not effective
CCN(CC)C(C)CN1c2ccccc2Sc2ccccc21 (centres unmarked) [ethopropazine],EAA antagonist potency vs NMDA,NMDA receptors [1]; [14],40
O=C(CCCN1CCC(O)(c2ccc(Cl)cc2)CC1)c1ccc(F)cc1 [haloperidol],side effects,[12],"severe side effects such as abnormal motor movements, muscle rigidity, and tremors"
same,anti-emetic effect in cancer chemotherapy,[12],only weakly active as anti-emetics
CC(C(O)c1ccc(O)cc1)N1CCC(Cc2ccccc2)CC1 (centres unmarked) [ifenprodil],EAA antagonist potency vs NMDA,NMDA receptors [1]; [15],100
CNC1(c2ccccc2Cl)CCCCC1=O (centres unmarked) [ketamine],psychotic effects,humans,psychotic effects
O=C(O)c1cc(=O)c2ccccc2[nH]1 [kynurenic acid],EAA antagonist potency vs NMDA,NMDA receptors [1]; [15],4
same,EAA antagonist potency vs KA,KA receptors [3]; [15],1
same,EAA antagonist potency vs Quis,Quis receptors [4]; [15],1
same,blockage of KA-induced emesis,dogs [11]; 50 mg/kg SC,emesis was blocked
same,blockage of glutamate-induced emesis,dogs [9]; Kyn 75 mg/kg SC,could be blocked
same,"behavior/malaise after cisplatin, treated by continuous infusion",ferrets; [16],"displayed playful behavior, sought and ate food, did not appear ill"
same,"vomiting after cisplatin, treated by continuous infusion",ferrets; [16],did not vomit
same,"appeared as ill as the control animals, treated by bolus injection",ferrets; Kyn 150 mg/kg bolus,only one appeared to be as ill as the control animals
same,"vomiting and malaise after cisplatin, treated by bolus injection",ferrets; Kyn 150 mg/kg bolus,Three of the ferrets treated by bolus injection vomited once or twice and showed transient malaise
same,EAA receptor subtype order of blockade,[5],NMDA>KA>Quis
CCN(CC)CCNC(=O)c1cc(Cl)c(N)cc1OC [metoclopramide],5-HT M receptor antagonism,5-HT M receptors,only a weak 5-HT M receptor antagonist
same,anti-emetic effect in cancer chemotherapy,[12],only partially effective
OC(CCN1CCCC1)(c1ccccc1)C1CCCCC1 (centres unmarked) [procyclidine],EAA antagonist potency vs NMDA,NMDA receptors [1]; [14],67
same,reduction of the neurotoxicity of NMDA antagonists that penetrate the BBB,"neurons; Ser. No. 424,548",effective in reducing the neurotoxicity
CN1[C@@H]2C[C@@H](OC(=O)[C@H](CO)c3ccccc3)C[C@H]1[C@@H]1O[C@@H]12 [scopolamine],effect against motion sickness or vertigo,[13],"relatively ineffective unless taken before a boat or airplane ride or other motion begins, or before the onset of vertigo"
same,effect on nausea and vomiting caused by other factors,[13],not effective
C=CCC1(C(C)CCC)C(=O)N=C(S)NC1=O (centres unmarked) [thiamylal],EAA antagonist potency vs NMDA,NMDA receptors [1]; [14],13
same,EAA antagonist potency vs KA,KA receptors [3]; [14],3
same,EAA antagonist potency vs Quis,Quis receptors [4]; [14],2
CCCC(C)C1(CC)C(=O)NC(=S)NC1=O (centres unmarked) [thiopental],EAA antagonist potency vs NMDA,NMDA receptors [1]; [14],7
same,EAA antagonist potency vs KA,KA receptors [3]; [14],2
same,EAA antagonist potency vs Quis,Quis receptors [4]; [14],2
OC(CCN1CCCCC1)(c1ccccc1)C1CCCCC1 (centres unmarked) [trihexyphenidyl],reduction of the neurotoxicity of NMDA antagonists that penetrate the BBB,"neurons; Ser. No. 424,548",effective in reducing the neurotoxicity
NC(CCCC(=O)O)C(=O)O (stereo not drawn) [α-amino adipate],EAA antagonist potency vs NMDA,NMDA receptors [1]; [15],5
